Results on twelve compounds are retold here after patent US20220372014A1, “NEUROPROTECTIVE COMPOUNDS AND METHODS OF USE THEREOF” (The Johns Hopkins University, priority 2019, published 2022).

One test deals with T1, MIF (Homo sapiens, UniProt P14174).
T1 sequence (P14174 1-115): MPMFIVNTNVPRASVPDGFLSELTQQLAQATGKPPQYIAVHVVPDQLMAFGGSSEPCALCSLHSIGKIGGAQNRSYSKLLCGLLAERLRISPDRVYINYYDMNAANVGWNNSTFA
The test is described as follows: Nuclease assay of Example 3 (MIF inhibitory activity, Table 4). Format: biochemical. The arrangement: (%) inhibition of MIF nuclease activity: concentration or dose not given beside the values. As to conditions: nuclease assay of Example 3. The method, boiled down: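 Human genomic DNA (200 ng), pcDNA (200 ng) or PS^30-type substrates (1 μM) were incubated with MIF (0.25-8 μM final) in 10 mM Tris-HCl pH 7.0, 10 mM MgCl2, 1 mM DTT at 37 °C for 1 h (pcDNA, small substrates) or 4 h (genomic DNA). Cleavage was assessed by agarose or PAGE electrophoresis with EtBr staining and chemiluminescent detection of biotin-labelled DNA.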

The test system of test [1] is HeLa cells or neuronal cells. The test is described as follows: Cell death assay of Example 3 (MNNG, alamarBlue; protection against parthanatos, Table 4). Format: cell-based. Conditions: 1 μM test compound, MNNG-induced cell death, alamarBlue. The method, boiled down:
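HeLa or neuronal cells (1×10^4/well) were pretreated 1 h at 37° C with 1 μM compound, exposed to MNNG for 15 min, washed, then re-incubated 18 h with 1 μM compound. Viability was read by alamarBlue fluorescence (ex 560/em 590 nm). Cell death was expressed relative to control wells.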
On the technique in general: Alamar Blue is a resazurin reagent that responds to reducing activity.

Regarding `COc1ccc(CC[C@H]2OC(=O)[C@@H]3CCCCN3C(=O)C(=O)C(C)(C)COC(=O)C=CCCN(C)C(=O)[C@@H]3CCCN3C(=O)[C@H](COC(C)(C)C)N(C)C(=O)[C@H](Cc3ccc(O)cc3)N(C)C(=O)[C@H](C)NC(=O)COc3cccc2c3)cc1OC` [compound 141], the “(%) inhibition of MIF nuclease activity” value on MIF came out at 9.2%. For the same compound, the “(%) inhibition of cell death” value in test [1] came out at 46.8%.
Consider `COc1ccc(CC[C@H]2OC(=O)[C@@H]3CCCCN3C(=O)C(=O)C(C)(C)COC(=O)C=CCCN(C)C(=O)[C@@H]3CCCN3C(=O)[C@H](COC(C)(C)C)N(C)C(=O)C(Cc3ccc(O)cc3)NC(=O)[C@H](C)NC(=O)COc3cccc2c3)cc1OC` (stereo partly drawn) [compound 142], for which the “(%) inhibition of MIF nuclease activity” value on MIF is −4.7%. Moreover, the “(%) inhibition of cell death” value in test [1] worked out at 42.5%.
The matching figures for `COc1ccc(CC[C@H]2OC(=O)[C@@H]3CCCCN3C(=O)C(=O)C(C)(C)COC(=O)C=CCCN(C)C(=O)[C@@H]3CCCN3C(=O)[C@H](COC(C)(C)C)N(C)C(=O)[C@H](Cc3ccc(C#N)cc3)NC(=O)[C@H](C)NC(=O)COc3cccc2c3)cc1OC` [compound 143]: −1.1% and 46.7%.
The matching figures for `COc1ccc(CC[C@H]2OC(=O)[C@@H]3CCCCN3C(=O)C(=O)C(C)(C)COC(=O)C=CCCN(C)C(=O)[C@@H]3CCCN3C(=O)[C@H](COC(C)(C)C)N(C)C(=O)C(c3ccccc3)NC(=O)C(c3ccccc3)N(C)C(=O)COc3cccc2c3)cc1OC` (stereo partly drawn) [compound 144]: 10.7% and 51.3%.
The corresponding values for `COc1ccc(CC[C@H]2OC(=O)[C@@H]3CCCCN3C(=O)C(=O)C(C)(C)COC(=O)C=CCCN(C)C(=O)[C@@H]3CCCN3C(=O)[C@H](COC(C)(C)C)N(C)C(=O)C(c3ccccc3)NC(=O)[C@H](Cc3ccccc3)N(C)C(=O)COc3cccc2c3)cc1OC` (stereo partly drawn) [compound 145] are 6.7% and 46.6%.
With `COc1ccc(CC[C@H]2OC(=O)[C@@H]3CCCCN3C(=O)C(=O)C(C)(C)COC(=O)C=CCCN(C)C(=O)[C@@H]3CCCN3C(=O)[C@H](COC(C)(C)C)N(C)C(=O)C(c3ccccc3)NC(=O)[C@H](COC(C)(C)C)N(C)C(=O)COc3cccc2c3)cc1OC` (stereo partly drawn) [compound 146], the “(%) inhibition of MIF nuclease activity” value on MIF is −1.1%. For the same compound, the “(%) inhibition of cell death” value in test [1] was determined as 43.9%.
On to `COc1ccc(CC[C@H]2OC(=O)[C@@H]3CCCCN3C(=O)C(=O)C(C)(C)COC(=O)C=CCCN(C)C(=O)[C@@H]3CCCN3C(=O)[C@H](COC(C)(C)C)N(C)C(=O)C(c3ccccc3)NC(=O)[C@H](C(C)CC(C)(C)C)N(C)C(=O)COc3cccc2c3)cc1OC` (stereo partly drawn) [compound 147], for which, at MIF, the “(%) inhibition of MIF nuclease activity” value was −4.7%. For the same compound, the “(%) inhibition of cell death” value in test [1] worked out at 46.2%.
For the compound `COc1ccc(CC[C@H]2OC(=O)[C@@H]3CCCCN3C(=O)C(=O)C(C)(C)COC(=O)C=CCCN(C)C(=O)[C@@H]3CCCN3C(=O)[C@H](COC(C)(C)C)N(C)C(=O)C(c3ccccc3)NC(=O)[C@H](Cc3ccc(O)cc3)N(C)C(=O)COc3cccc2c3)cc1OC` (stereo partly drawn) [compound 148], at MIF, the “(%) inhibition of MIF nuclease activity” value is given as 12.0%. Further, the “(%) inhibition of cell death” value in test [1] is 50.7%.
Take `C[C@H]1C(=O)NC(c2ccccc2)C(=O)N(C)[C@@H](COC(C)(C)C)C(=O)N2CCC[C@H]2C(=O)N(C)CCC=CC(=O)OCC(C)(C)C(=O)C(=O)N2CCCC[C@H]2C(=O)O[C@H](CCc2ccccc2)c2cccc(c2)OCC(=O)N1C` (stereo partly drawn) [compound 149]: the “(%) inhibition of MIF nuclease activity” value on MIF was −11.8%. In addition, the “(%) inhibition of cell death” value in test [1] is 51.0%.
The matching figures for `COc1cccc(CC[C@H]2OC(=O)[C@@H]3CCCCN3C(=O)C(=O)C(C)(C)COC(=O)C=CCCN(C)C(=O)[C@@H]3CCCN3C(=O)[C@H](COC(C)(C)C)N(C)C(=O)C(c3ccccc3)NC(=O)[C@H](C)N(C)C(=O)COc3cccc2c3)c1` (stereo partly drawn) [compound 150]: 10.7% and 50.8%.
`COc1ccc(CC[C@H]2OC(=O)[C@@H]3CCCCN3C(=O)C(=O)C(C)(C)COC(=O)C=CCCN(C)C(=O)[C@@H]3CCCN3C(=O)[C@H](COC(C)(C)C)N(C)C(=O)C(c3ccccc3)NC(=O)[C@H](C)N(C)C(=O)COc3cccc2c3)cc1` (stereo partly drawn) [compound 151]: the “(%) inhibition of MIF nuclease activity” value on MIF came to 6.8%. In addition, the “(%) inhibition of cell death” value in test [1] came to 45.7%.
Regarding `COc1ccc(CC[C@H]2OC(=O)[C@@H]3CCCCN3C(=O)C(=O)C(C)(C)COC(=O)C=CCCN(C)C(=O)[C@@H]3CCCN3C(=O)[C@H](COC(C)(C)C)N(C)C(=O)C(c3ccccc3)NC(=O)[C@H](C)N(C)C(=O)COc3cccc2c3)cc1OC` (stereo partly drawn) [compound 152], the “(%) inhibition of MIF nuclease activity” value at MIF is recorded as −2.4%. Besides, in test [1] (1 µM), the “(%) inhibition of cell death” value is on record as 43.0%.
